Tests used:
Type in all cases: cell-based
STING = STING (Homo sapiens, UniProt Q86WV6); assay: IFN-β secretion from THP1 by STING activation (hIFNβ ELISA); details: THP1 cells, 24 h incubation, IFN-β in supernatant, top dose set according to solubility; for EC50: read-out: hIFNβ ELISA (EC50)
Experimental: In this assay, activation of STING by compounds was evaluated by detecting their ability to stimulate the secretion of IFN-β (interferon-beta) from THP1. THP1 was purchased from National Collection of Authenticated Cell Cultures (Cat #TCHu 57). The top dose of compounds was setted according to their solubility. First, Compounds were 3 times diluted with medium, 8-dose points in total. The final DMSO concentration was 0.2%. THP1 during the logarithmic phase was resuspended to 2×10^6 cells/ml in assay medium. The THP1-cell suspension was dispensed into a 96-well U bottom plate containing 50 ul of compound diluted in medium. After 24 h incubation at 37° C., 5% CO2, the supernatant was collected. The concentration of IFN-β in the supernatant was measured using a human IFNβ ELISA KIT (R&D, DY814-05). The data was fitted with GraphPad Prism or XLfit to calculate EC50 values.

STING HAQ variant = target: T1, STING HAQ variant (Homo sapiens, UniProt Q86WV6, G230A/R293Q/R71H); assay: SEAP reporter assay in HEK-Blue ISG KO-STING cells transfected with STING HAQ variant (Method 1); details: 24 h, SEAP signal vs 0.5% DMSO
T1 construct: host or cells: HEK-Blue ISG KO-STING cells (Invivogen, hkb-kostg)
T1 sequence (Q86WV6 whole entry R71H/G230A/R293Q): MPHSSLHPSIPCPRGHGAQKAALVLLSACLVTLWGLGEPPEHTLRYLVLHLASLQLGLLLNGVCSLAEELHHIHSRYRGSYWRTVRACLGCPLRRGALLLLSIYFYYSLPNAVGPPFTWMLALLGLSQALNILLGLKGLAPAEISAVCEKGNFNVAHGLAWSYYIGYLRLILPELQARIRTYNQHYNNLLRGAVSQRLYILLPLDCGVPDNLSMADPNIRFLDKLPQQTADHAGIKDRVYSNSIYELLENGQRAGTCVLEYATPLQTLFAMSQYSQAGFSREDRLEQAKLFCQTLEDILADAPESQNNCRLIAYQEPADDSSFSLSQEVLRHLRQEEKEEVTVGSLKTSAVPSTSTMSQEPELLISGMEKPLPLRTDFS
Source text: (§1) Activation of STING can be determined using a SEAP reporter assay in HEK-Blue™ ISG KO-STING cells (Invivogen, cat #hkb-kostg) transfected with plasmids expressing STING variants (WT & HAQ) (referred to WO2017/175147A1). STING variants (WT & HAQ) vector were constructed based on STING-232H vector (Origene, RC208418). GFP vector (VT2069) was bought from Youbio. The detailed protocol as follows: HEK-Blue™ ISG KO-STING cells were harvest and seeding into 96 well plate, the final cell number was 0.8×10^5 cells/well. Transfections were prepared using Lipofectamine 2000 (Invitrogen, Cat #11668-027) following the manufacturer's instructions (Lipo2000/DNA=1/10), 20 ul of transfection suspension containing 1 ng STING vector was added to cell culture plate and incubated at 37° C., 5% CO2 for 24 hours. After 24 hours' incubation, compounds were added at proper concentration, and the final DMSO concentration was 0.5%. After 24 h incubation, the supernatant was collected to detect SEAP signal using Great EscAPe SEAP chemiluminescence KIT (Clontech, cat #631738) and cells were collected to detect cell viability using CellTiter-Glo Luminescent Cell Viability Assay (Promega, cat #G7573) following the manufacturer's instructions. The data were described by the ratio of the stimulating signal of compounds to 0.5% DMSO.

STING WT variant = target: T2, STING WT variant (Homo sapiens, UniProt Q86WV6); assay: SEAP reporter assay in HEK-Blue ISG KO-STING cells transfected with STING WT variant (Method 1); details: 24 h, SEAP signal vs 0.5% DMSO
T2 construct: host or cells: HEK-Blue ISG KO-STING cells (Invivogen, hkb-kostg)
Source text: as §1

[1] = 1 ng STING vector, compound 5 uM
[2] = 1 ng STING vector, compound 2.5 uM

Chain of STING (Q86WV6 whole entry): as the sequence (Q86WV6 whole entry R71H/G230A/R293Q) above, with H71R, A230G, Q293R counted along it

Compound | EC50 (STING) [µM] | Fold change related to DMSO control HAQ (STING HAQ variant; [1]) | hIFNβ ELISA (EC50, μM) (STING) | Fold change related to DMSO control WT (STING WT variant; [2]) | Fold change related to DMSO control HAQ (STING HAQ variant; compound 80.2 uM) | Fold change related to DMSO control WT (STING WT variant; compound 80.2 uM)
CCn1nc(C)c2c1C(=O)Nc1nc3cc(C(N)=O)cc4c3n1[C@@H](CCCn1c(nc3cc(C(N)=O)cc(OCCCOC)c31)NC(=O)c1cc(C)nn1CCCCC2)CO4 [Example 58, (S)-7-Ethyl-24-(3-methoxypropoxy)-9,16-dimethyl-6,18-dioxo-5,6,7,10,11,12,13,14,18,19,26,27,27a,28-tetradecahydro-25H-29-oxa-4,4a1,5,7,8,14a,15,19,20,24b-decaaza-dicyclopenta[11, 12:18,19]indeno[1′,2′:7,8]cyclohenicosa[1,2,3-bc]acenaphthylene-2,22-dicarboxamide] | > 4.3 |  |  |  |  | 
CCn1nc(C)cc1C(=O)Nc1nc2cc(C(N)=O)cc(OCCCNC(=O)CN(C)C)c2n1CCC[C@H]1COc2cc(C#N)cc3nc(NC(=O)c4cc(C)nn4CC)n1c23 [Example 15, (S)-1-(3-(7-cyano-2-(1-ethyl-3-methyl-1H-pyrazole-5-carboxamido)-3,4-dihydro-5-oxa-1,2a-diazaacenaphthylen-3-yl)propyl)-7-(3-(2-(dimethylamino)acetamido)propoxy)-2-(1-ethyl-3-methyl-1H-pyrazole-5-carboxamido)-1H-benzo[d]imidazole-5-carboxamide] |  | 11.61 | inactive | 2.11 |  | 
CCn1nc(C)cc1C(=O)Nc1nc2cc(C(N)=O)cc(OCCCNS(C)(=O)=O)c2n1CCC[C@H]1COc2cc(C(N)=O)cc3nc(NC(=O)c4cc(C)nn4CC)n1c23 [Example 30, (S)-3-(3-(5-carbamoyl-2-(1-ethyl-3-methyl-1H-pyrazole-5-carboxamido)-7-(3-(methylsulfonamido)propoxy)-1H-benzo[d]imidazol-1-yl)propyl)-2-(1-ethyl-3-methyl-1H-pyrazole-5-carboxamido)-3,4-dihydro-5-oxa-1,2a-diazaacenaphthylene-7-carboxamide] | > 13 | 33.34 |  | 1.96 |  | 
CCn1nc(C)cc1C(=O)Nc1nc2cc(C(N)=O)cc(OCCCNC(=O)CN(C)C)c2n1CCC[C@H]1COc2cc(C(N)=O)cc3nc(NC(=O)c4cc(C)nn4CC)n1c23 [Example 20, (S)-3-(3-(5-carbamoyl-7-(3-(2-(dimethylamino)acetamido)propoxy)-2-(1-ethyl-3-methyl-1H-pyrazole-5-carboxamido)-1H-benzo[d]imidazol-1-yl)propyl)-2-(1-ethyl-3-methyl-1H-pyrazole-5-carboxamido)-3,4-dihydro-5-oxa-1,2a-diazaacenaphthylene-7-carboxamide] | 11.4 | 41.58 |  | 2.63 |  | 
CCn1nc(C)cc1C(=O)Nc1nc2cc(C(N)=O)cc(OCCCNC(C)=O)c2n1CCC[C@H]1COc2cc(C(N)=O)cc3nc(NC(=O)c4cc(C)nn4CC)n1c23 [Example 22, (S)-3-(3-(7-(3-acetamidopropoxy)-5-carbamoyl-2-(1-ethyl-3-methyl-1H-pyrazole-5-carboxamido)-1H-benzo[d]imidazol-1-yl)propyl)-2-(1-ethyl-3-methyl-1H-pyrazole-5-carboxamido)-k, 3,4-dihydro-5-oxa-1,2a-diazaacenaphthylene-7-carboxamide] | 3.9 | 47.36 |  | 2.40 |  | 
CCn1nc(C)cc1C(=O)Nc1nc2cc(C(N)=O)cc(OCCCOC)c2n1CC[C@H]1COc2cc(C(N)=O)cc3nc(NC(=O)c4cc(C)nn4CC)n1c23 [Example 7, (S)-3-(2-(5-carbamoyl-2-(1-ethyl-3-methyl-1H-pyrazole-5-carboxamido)-7-(3-methoxypropoxy)-1H-benzo[d]imidazol-1-yl)ethyl)-2-(1-ethyl-3-methyl-1H-pyrazole-5-carboxamido)-3,4-dihydro-5-oxa-1,2a-diazaacenaphthylene-7-carboxamide] |  |  | inactive |  | 20.29 | 1.96
CCn1nc(C)cc1C(=O)Nc1nc2cc(C(N)=O)cc(OCCCS(C)(=O)=O)c2n1CCC[C@H]1COc2cc(C(N)=O)cc3nc(NC(=O)c4cc(C)nn4CC)n1c23 [Example 37, (S)-3-(3-(5-carbamoyl-2-(1-ethyl-3-methyl-1H-pyrazole-5-carboxamido)-7-(3-(methylsulfonyl)propoxy)-1H-benzo[d]imidazol-1-yl)propyl)-2-(1-ethyl-3-methyl-1H-pyrazole-5-carboxamido)-3,4-dihydro-5-oxa-1,2a-diazaacenaphthylene-7-carboxamide] |  | 23.71 | inactive | 2.14 |  | 
CCn1nc(C)cc1C(=O)Nc1nc2cc(C(N)=O)cc(OCCCN(C)C(=O)CN3CCOCC3)c2n1CCC[C@H]1COc2cc(C(N)=O)cc3nc(NC(=O)c4cc(C)nn4CC)n1c23 [Example 29, (S)-3-(3-(5-carbamoyl-2-(1-ethyl-3-methyl-1H-pyrazole-5-carboxamido)-7-(3-(N-methyl-2-morpholinoacetamido)propoxy)-1H-benzo[d]imidazol-1-yl)propyl)-2-(1-ethyl-3-methyl-1H-pyrazole-5-carboxamido)-3,4-dihydro-5-oxa-1,2a-diazaacenaphthylene-7-carboxamide] | 6.7 | 27.10 |  | 1.99 |  | 
CCn1nc(C)c2c1C(=O)Nc1nc3cc(C(N)=O)cc(OCCCOC)c3n1CCC[C@H]1COc3cc(C(N)=O)cc4nc(n1c34)NC(=O)c1cc(C)nn1CCCCC2 [Example 59, (S)-17-ethyl-24-(3-methoxypropoxy)-8,15-dimethyl-6,18-dioxo-5,6,10,11,12,13,14,17, 18, 19, 26, 27, 27a,28-tetradecahydro-25H-29-oxa-4,4a1,5,9,9a,16, 17, 19, 20, 24b-decaazadicyclopenta[11, 12:18,19]indeno[1′,2′:7,8]cyclohenicosa[1,2,3-bc]acenaphthylene-2,22-dicarboxamide] | > 5.6 |  |  |  |  | 
CCn1nc(C)cc1C(=O)Nc1nc2cc(C(N)=O)cc(OCCCOC)c2n1CCC[C@H]1COc2cc(-c3nn[nH]n3)cc3nc(NC(=O)c4cc(C)nn4CC)n1c23 [Example 26, (S)-2-(1-ethyl-3-methyl-1H-pyrazole-5-carboxamido)-1-(3-(2-(1-ethyl-3-methyl-1H-pyrazole-5-carboxamido)-7-(2H-tetrazol-5-yl)-3,4-dihydro-5-oxa-1,2a-diazaacenaphthylen-3-yl)propyl)-7-(3-methoxypropoxy)-1H-benzo[d]imidazole-5-carboxamide] |  |  | inactive |  |  | 
CCn1nc(C)cc1C(=O)Nc1nc2cc(C(N)=O)cc(OCCCN(C)C(=O)CN(C)C)c2n1CCC[C@H]1COc2cc(C(N)=O)cc3nc(NC(=O)c4cc(C)nn4CC)n1c23 [Example 28, (S)-3-(3-(5-carbamoyl-7-(3-(2-(dimethylamino)-N-methylacetamido)propoxy)-2-(1-ethyl-3-methyl-1H-pyrazole-5-carboxamido)-1H-benzo[d]imidazol-1-yl)propyl)-2-(1-ethyl-3-methyl-1H-pyrazole-5-carboxamido)-3,4-dihydro-5-oxa-1,2a-diazaacenaphthylene-7-carboxamide] | 11.7 |  |  |  |  | 
CCn1nc(C)cc1C(=O)Nc1nc2cc(C(N)=O)cc(OCCCOC)c2n1CCC[C@H]1COc2cc(C#N)cc3nc(NC(=O)c4cc(C)nn4CC)n1c23 [Example 11, (S)-1-(3-(7-cyano-2-(1-ethyl-3-methyl-1H-pyrazole-5-carboxamido)-3,4-dihydro-5-oxa-1,2a-diazaacenaphthylen-3-yl)propyl)-2-(1-ethyl-3-methyl-1H-pyrazole-5-carboxamido)-7-(3-methoxypropoxy)-1H-benzo[d]imidazole-5-carboxamide] |  | 27.74 |  | 1.83 |  | 
